Measured values: patent publication US20250041624A1, “METHOD FOR ENHANCING ACTIVITY OF PHOTOSENSITIZER BY MAGNETIC FIELD” (PEKING UNIVERSITY, priority 2021, published 2025)

Columns and labels:
[1] = test system: HeLa cells; assay: H2DCFDA fluorescence imaging of intracellular oxidation in HeLa cells; type: cell-based; conditions: RB 30 μmol/L, FIG. 11
Description: (1) HeLa cells are seeded on sterile glass coverslips and placed in DMEM (comprising FBS) plates for 12 h. Then appropriate amount of 30 μmol/L RB or 0.01 mol/L PBS buffer is added, respectively. After 24 h in dark, H2DCFDA (dichlorofluorescein diacetate, ≥97%, purchased from Sigma-Aldrich) is added to give final concentration of 10 μmol/L and cells are incubated for another 30 min, and then are washed 3 times with PBS buffer.
Said HeLa cells are placed under the magnetic field conditions of 0 mT, 250 mT, 800 mT, respectively, without irradiation or with 10 min light (561 nm, 5 mW·cm^−2). Fluorescence images are obtained using Nikon A1R-si laser scanning confocal microscopy (488 nm excitation, 515±15 nm received fluorescence), where H2DCFDA is the indicator that reacts with cellular singlet oxygen ^1O2 to increase fluorescence emission intensity (excitation wavelength is 504 nm, and emission wavelength is 529 nm).
The change rate of fluorescence intensity in Hela cells added with RB under the conditions of light and magnetic field at 0, 250 or 800 mT is shown in FIG. 12. The change rate of fluorescence intensity is (IB−I0)/I0×100%, IB is the fluorescence intensity at magnetic field strength of B, and I0 is the fluorescence intensity without magnetic field. In FIG. 12, ** is the statistical probability p<0.01; *** is p<0.005, and p<0.05 is considered significant.

[2] = test system: HeLa cells; assay: Annexin V-FITC/PI apoptosis flow cytometry of HeLa cells; type: cell-based; conditions: RB 30 μmol/L; for percentage of apoptotic cells: light 561 nm 5 mW·cm−2 10 min
Description: (2) HeLa cells (2×10^4/well) are seeded in 6-well plates and cultured for 24 hours, added with RB solution (final concentration 30 μmol/L) or PBS buffer (final concentration 0.01 mol/L), and after treating 24 hours, cells are washed 3 times with PBS buffer.
The cells are placed under a magnetic field at 0, 250 or 800 mT, simultaneously with light (561 nm, 5 mW·cm^−2) or in the dark, and treated 10 minutes. After 24 hours incubation in the dark, cells are stained with Annexin V-FITC/PI Apoptosis Kit (available from Biyotime Biotechnology Co. Ltd), are detected by flow cytometry (BD FACSVerse, Becton Dickinson) and are statistically analysized three times every group, and results are shown in FIG. 13, in which Quadrant Q4 is for the number of healthy cells, Q1 is for the number of early apoptotic cells, Q2 is for the number of late apoptotic cells and Q3 is for the number of necrotic cells.

[3] = test system: Bax/Bcl-2; assay: Western blot of Bax/Bcl-2 in HeLa cells; type: cell-based; conditions: RB 30 μmol/L treated HeLa; light; 250 mT vs no magnetic field
Description: HeLa cells (2×10^4/well) are seeded in 6-well plates and cultured for 24 hours, added with RB solution (final concentration 30 μmol/L) or PBS buffer (final concentration 0.01 mol/L), and after treating 24 hours, cells are washed 3 times with PBS buffer.
The cells are placed under a magnetic field at 0, 250 or 800 mT, simultaneously with light (561 nm, 5 mW·cm^−2) or in the dark. After 24 hours treatment, cells are washed with PBS buffer and collect by centrifugation. Protein is extracted from cells using RIPA lysis buffer (medium lysis strength). Target protein is detected with primary antibody, to identify cleaved Caspase-3 protease, Bax (BCL2-Associated X protein) and Bcl-2 (B lymphocytomatose-2 gene), respectively, with β-Actin antibody as the reference. Images are acquired by Bio-Rad ChemiDoc touch imaging system, and results are shown in FIG. 14, in which, group A is PBS buffer treated HeLa cells (light, no magnetic field); group B is RB treated HeLa cells (light, no magnetic field); group C is RB-treated Hela cells (light, 250 mT magnetic field); group D is RB-treated Hela cells (light, 800 mT magnetic field).
The change rate of protein expression is (AB−A0)/A0×100%, where AB and A0 are protein expression with and without magnetic field, respectively (obtained by ImageJ software analyzing the bands in FIG. 14).

[4] = Singlet oxygen quantum yield and lifetime (1270 nm phosphorescence in D2O) under magnetic field; type: physicochemical; conditions: for τΔ (lifetime of singlet oxygen): RB 10 μmol/L in D2O
Description: (4) Singlet oxygen (^1O2), quantum yield (ΦΔ) and lifetime (τΔ) are measured by the following experiment. The phosphorescence of singlet oxygen (^1O2) generated at 1270 nm is determined in air saturated D2O solution of RB (10 μmol/L). The solution is excited at 561 nm.
The magnetic field effect MFs (ΦΔ,B) is calculated by the following formula: ΦΔ,B=ΦΔ,0×(IB/I0), where IB and I0 are peak areas of emission peaks at a magnetic field strength of B and without magnetic field strength, respectively.
The change rate of the magnetic field effect is:
The lifetime (τΔ) of singlet oxygen (^1O2) is affected by the magnetic field effect is as follows: […]

Q: For `O=C1OC2(c3cc(I)c(O)c(I)c3Oc3c2cc(I)c(O)c3I)c2c(Cl)c(Cl)c(Cl)c(Cl)c21` [RB, Rose Bengal], which “fluorescence intensity of HeLa cells (H2DCFDA)” value ([1]; absence of magnetic field, vs PBS) is on record?
A: stronger than that with PBS

Q: And the “fluorescence intensity of HeLa cells (H2DCFDA)” value ([1]; irradiation 561 nm 10 min and 250 mT)?
A: stronger than those under the absence of magnetic field and the magnetic field of 800 mT

Q: What about the “percentage of apoptotic cells” value ([2]; 250 mT) of the same compound?
A: 75.9%

Q: What about the “percentage of apoptotic cells” value ([2]; 800 mT) of the same compound?
A: 32.9%

Q: What about the “percentage of apoptotic cells” value ([2]; no magnetic field) of the same compound?
A: 63.8%

Q: And the “increase of percentage of apoptotic cells vs no magnetic field” value ([2]; light, 250 mT)?
A: 19%

Q: And the “change rate of Bax/Bcl-2 expression (%)” value [3]?
A: 10.6 ± 0.5%

Q: What about the “τΔ (lifetime of singlet oxygen)” value ([4]; MF 0 mT) of the same compound?
A: 66.7 ± 2.8 μs

Q: What about the “τΔ (lifetime of singlet oxygen)” value ([4]; MF 30 mT) of the same compound?
A: 65.8 ± 7.1 μs

Q: What about the “τΔ (lifetime of singlet oxygen)” value ([4]; MF 50 mT) of the same compound?
A: 60.7 ± 2.0 μs

Q: What about the “τΔ (lifetime of singlet oxygen)” value ([4]; MF 90 mT) of the same compound?
A: 62.6 ± 3.2 μs

Q: What about the “τΔ (lifetime of singlet oxygen)” value ([4]; MF 120 mT) of the same compound?
A: 69.5 ± 4.7 μs

Q: And the “τΔ (lifetime of singlet oxygen)” value ([4]; MF 150 mT)?
A: 62.8 ± 0.8 μs

Q: What about the “τΔ (lifetime of singlet oxygen)” value ([4]; MF 200 mT) of the same compound?
A: 65.4 ± 4.5 μs

Q: What about the “rate of change of luminescence quantum yield of 1O2” value ([4]; RB 10 μmol/L in air saturated D2O, excited at 561 nm, with increasing magnetic field, FIG. 21) of the same compound?
A: −5% to +10%
